The values that follow are results of earlier work, collected in publication PMC4875935 (Clinical Pharmacokinetics, 2015).

Values joined by “and” are separate entries in the source; they are usually repeats but may differ in a detail not shown here. Equal entries are not always repeated.

Data set [1] concerns invasive candidiasis.
Assay in data set [2]: not given
The source holds these as a separate data set.

Data set [3] deals with Candida albicans. The settings on record: neutropenic mouse model of disseminated Candida albicans.
Data set [4] has as its system C. albicans.

For the compound `CC[C@H](C)C[C@H](C)CCCCCCCCC(=O)N[C@H]1C[C@@H](O)[C@@H](NCCN)NC(=O)[C@@H]2[C@@H](O)CCN2C(=O)[C@H]([C@H](O)CCN)NC(=O)[C@H]([C@H](O)[C@@H](O)c2ccc(O)cc2)NC(=O)[C@@H]2C[C@@H](O)CN2C(=O)[C@H]([C@@H](C)O)NC1=O` [caspofungin], the tolerability result in data set [1] (150 mg daily, patients with invasive candidiasis) is reported as “well-tolerated”. For the same compound, in data set [1] (reported response rates in the literature), the “clinical and mycological cure at the end of therapy” value is 72–73%. Also, for the setting “earlier studies amongst other patient groups”, the CL was 0.40 L/h and 0.46 L/h. Besides, the AUC24 typically observed (typically observed for caspofungin) was 100000 ng·h/mL. Moreover, the protein bound in data set [2] was 92–97%. The “AUC/MIC ratio associated with a 1-log kill/24 h” value in data set [3] is 865. For the same compound, in data set [4], the epidemiological cut-off value was 0.12 µg/mL and the “mode MIC” value is 0.03 µg/mL.
